Laboratory results from PubChem BioAssay (NCI).
Several values for one entry are separate records, joined by “and”; a condition that tells them apart may be missing. Identical values can stand only once.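 Values below derive from 48-hour exposures of cells grown in 96-well plates, with endpoints linearly interpolated between the two concentrations bracketing the appropriate inhibition level. GI50 is the concentration that inhibits growth by half. TGI is the concentration that stops growth completely.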

Key:
Assay in all cases: inhibition of tumour cell growth, NCI panel, 48 h
[1] = system: SNB-19 CNS
[2] = system: SR leukemia
[3] = system: CCRF-CEM leukemia
[4] = system: UACC-62 melanoma
[5] = system: PC-3 prostate
[6] = system: IGROV1 ovarian
[7] = system: NCI-H522 lung
[8] = system: HOP-62 NSCLC
[9] = system: RXF 393 renal
[10] = system: NCI-H460 lung

| Structure (SMILES) | GI50 [1] [µM] | TGI [1] | GI50 [2] [µM] | TGI [2] [µM] | GI50 [3] [µM] | TGI [3] [µM] | GI50 [4] [µM] | TGI [4] | GI50 [5] [µM] | TGI [5] | GI50 [6] [µM] | TGI [6] | GI50 [7] [µM] | TGI [7] | GI50 [8] [µM] | TGI [8] | GI50 [9] [µM] | TGI [9] [µM] | GI50 [10] [µM] | TGI [10] |
| --- | --- | --- | --- | --- | --- | --- | --- | --- | --- | --- | --- | --- | --- | --- | --- | --- | --- | --- | --- | --- |
| COc1cc(C2c3cc4c(cc3C(OC(=O)C[n+]3ccccc3)C3COC(=O)C23)OCO4)cc(OC)c1OC (stereo not given) | < 0.0265 | > 100 µM | < 0.016 | > 100 | < 0.0205 | > 100 | 10.7 | > 100 µM | < 0.0187 | > 100 µM | < 0.0207 | > 100 µM | < 0.01 | < 0.01 µM | < 0.0259 | > 100 µM | < 0.0191 | > 100 | < 0.0187 | > 100 µM |
| O=C(O)C1[O][Sb][O]C(C(=O)O)C1O (stereo not given) | > 100 | > 100 µM | > 100 | > 100 | > 100 | > 100 | > 100 | > 100 µM | > 100 | > 100 µM | > 100 | > 100 µM | > 100 | > 100 µM | > 100 | > 100 µM | > 100 | > 100 | > 100 | > 100 µM |
| CCOP(=O)(OCC)C(C(=O)OC)C(=O)C(=O)Nc1cccc(O)c1 (stereo not given) | – | > 100 µM | – | > 100 | – | > 100 | – | > 100 µM | – | > 100 µM | – | > 100 µM | – | > 100 µM | – | > 100 µM | – | > 100 | – | > 100 µM |
| NS(=O)(=O)c1cc(C(=O)O)c(O)c2ccccc12 | – | > 100 µM | – | > 100 | – | > 100 | – | > 100 µM | – | > 100 µM | – | > 100 µM | – | > 100 µM | – | > 100 µM | – | > 100 | – | > 100 µM |
| CC(=O)C1=C(O)C=C2Oc3c(C(=O)/C=C/c4cc(Cl)cc(Cl)c4)c(O)c(C)c(O)c3[C@]2(C)C1=O | 0.582 | 3.06 µM | 0.459 | 4.35 | 0.498 | 2.65 | 0.434 | 1.62 µM | 0.537 | 2.04 µM | 0.673 | 4.69 µM | 0.334 | 0.919 µM | 0.48 | 1.67 µM | 0.541 | 1.62 | 0.528 | 1.77 µM |
| Cc1cc2c(-c3nc4ccccn4c3N)c(O)c(O)cc2c(O)c1-c1c(C)cc2c(-c3nc4ccccn4c3N)c(O)c(O)cc2c1O | 0.661 | > 25 µM | 1.96 | > 25 | 0.497 | > 25 | 0.723 | 7.05 µM | 0.692 | > 25 µM | 1.36 | > 25 µM | 0.625 | 4.88 µM | 1.15 | > 25 µM | 0.682 | 18 | 0.103 | 3.11 µM |
| O=[N+]([O-])c1cc([N+](=O)[O-])c(Nn2c3ccccc3c3ccccc32)c([N+](=O)[O-])c1 | 0.376 | 54 µM and > 100 µM | 0.232 | > 100 | 0.355 | > 100 | 0.338 | 5.67 µM and 1.59 µM | 0.316 | 7.37 µM and 11.3 µM | 0.418 | 25.4 µM and 21.2 µM | 0.253 | 1.88 µM and 0.838 µM | 0.344 | 6.11 µM and 2.07 µM | 0.272 | 1.24 | 0.342 | 13 µM and 1.93 µM |
| CC(=O)[C@H]1CCC/C=C/[C@@H]2C[C@H](O)C[C@H]2[C@H](O)/C=C/C(=O)O1 | 1.64 | > 100 µM | 0.313 | 86.9 | 0.395 | > 62.7 | 0.498 | > 100 µM | 0.678 | > 100 µM | 0.803 | > 24 µM | 0.805 | 2.74 µM | 2.08 | > 30.2 µM | 0.236 | 0.742 | 2.67 | > 100 µM |
| CCOC(=O)C(C#N)C1=CC(=O)C(=O)c2ccc(O)cc21 (stereo not given) | – | > 100 µM | – | > 100 | – | > 100 | – | 36.9 µM | – | > 100 µM | – | > 100 µM | – | > 100 µM | – | > 100 µM | – | > 100 | – | > 100 µM |
| COC(=O)c1oc2c(C(=O)/C=C/c3ccc(OC)cc3)c(OCCN(C)C)ccc2c1C | 10.9 | 23.5 µM | 2.37 | 7.38 | 2.24 | 6.93 | 12.3 | 27.1 µM | 8.43 | 21.7 µM | 5.99 | 21.4 µM | 5.39 | 20.2 µM | 20.5 | 38.7 µM | 3.91 | 14.6 | 4.56 | 17.5 µM |
| Clc1ccccc1-c1nnc2c(Cc3ccccc3)nc3ccccc3n12 | 36.3 | > 100 µM | 3.91 | > 100 | 7.11 | > 100 | 6.9 | > 100 µM | 4.66 | > 100 µM | 44 | > 100 µM | 29.1 | > 100 µM | 9.92 | > 100 µM | 3.29 | > 100 | 3.18 | > 100 µM |
| C/C=C1/CC(C)C(C)(O)C(=O)OCC2C(O)CN3CCC(OC1=O)C23 (stereo not given) | – | > 100 µM | – | > 100 | – | > 100 | – | > 100 µM | – | > 100 µM | – | > 100 µM | – | > 100 µM | – | > 100 µM | – | > 100 | – | > 100 µM |
